Species on record: Rattus norvegicus
Assay: DrugMatrix - Regimen: Daily Repeat
Type: toxicity, organism-based, Sprague-Dawley
Set-up: regimen Daily Repeat, gender Male, age 6-8 weeks
Conditions: in vivo, po, 60 mg/kg, route oral GAVAGE, dose level High, vehicle 100 % WATER; for ABSOLUTE BASOPHIL / ABSOLUTE EOSINOPHIL / ABSOLUTE LYMPHOCYTE / ABSOLUTE MONOCYTE / ABSOLUTE SEGMENTED NEUTROPHIL / BASOPHIL / EOSINOPHIL / ERYTHROCYTE COUNT / HEMATOCRIT / HEMOGLOBIN / LEUKOCYTE COUNT / LYMPHOCYTE / MEAN CORPUSCULAR HEMOGLOBIN / MEAN CORPUSCULAR HEMOGLOBIN CONCENTRATION / MEAN CORPUSCULAR VOLUME / MONOCYTE / NEUTROPHIL / NUCLEATED RED BLOOD CELLS / PLATELET COUNT: tissue Blood
[1] = 72 h, tissue Plasma, time 3 day
[2] = 120 h, tissue Plasma, time 5 day

Nc1ccc(O)c(N)c1 [2,4-DIAMINOPHENOL]
ABSOLUTE BASOPHIL (72 h, time 3 day): 0 CELLS/uL
ABSOLUTE EOSINOPHIL (72 h, time 3 day): 193.67 CELLS/uL
ABSOLUTE LYMPHOCYTE (72 h, time 3 day): 11960 CELLS/uL
ABSOLUTE MONOCYTE (72 h, time 3 day): 874.33 CELLS/uL
ABSOLUTE SEGMENTED NEUTROPHIL (72 h, time 3 day): 1505.33 CELLS/uL
BASOPHIL (72 h, time 3 day): 0%
EOSINOPHIL (72 h, time 3 day): 1.33%
ERYTHROCYTE COUNT (72 h, time 3 day): 5.59 x10E6/uL
HEMATOCRIT (72 h, time 3 day): 34.17%
HEMOGLOBIN (72 h, time 3 day): 12.63 G/DL
LEUKOCYTE COUNT (72 h, time 3 day): 14.53 x10E3/uL
LYMPHOCYTE (72 h, time 3 day): 82.33%
MEAN CORPUSCULAR HEMOGLOBIN (72 h, time 3 day): 22.6 pg
MEAN CORPUSCULAR HEMOGLOBIN CONCENTRATION (72 h, time 3 day): 36.97 G/DL
MEAN CORPUSCULAR VOLUME (72 h, time 3 day): 61.1 fL
MONOCYTE (72 h, time 3 day): 6%
NEUTROPHIL (72 h, time 3 day): 10.33%
NUCLEATED RED BLOOD CELLS (72 h, time 3 day): 0 /100WBC
PLATELET COUNT (72 h, time 3 day): 1050 x10E3/uL
ALANINE AMINOTRANSFERASE [1]: 72 u/L
ALBUMIN [1]: 4.43 G/DL
ALKALINE PHOSPHATASE [1]: 400.67 u/L
ASPARTATE AMINOTRANSFERASE [1]: 94 u/L
BLOOD UREA NITROGEN [1]: 17.67 mg/dL
CARBON DIOXIDE [1]: 23.33 mmol/L
CHLORIDE [1]: 102.67 MEQ/L
CHOLESTEROL [1]: 68 mg/dL
CREATININE [1]: 0.19 mg/dL
GLUCOSE [1]: 165 mg/dL
LACTATE DEHYDROGENASE [1]: 314.67 u/L
LIPASE [1]: 8.33 u/L
PHOSPHORUS [1]: 12.5 mg/dL
POTASSIUM [1]: 6.48 MEQ/L
SODIUM [1]: 144.2 MEQ/L
TOTAL BILIRUBIN [1]: 0.23 mg/dL
TOTAL PROTEIN [1]: 6 G/DL
URIC ACID [1]: 1.63 mg/dL
ABSOLUTE BASOPHIL (120 h, time 5 day): 0 CELLS/uL
ABSOLUTE EOSINOPHIL (120 h, time 5 day): 0 CELLS/uL
ABSOLUTE LYMPHOCYTE (120 h, time 5 day): 5905 CELLS/uL
ABSOLUTE MONOCYTE (120 h, time 5 day): 88.67 CELLS/uL
ABSOLUTE SEGMENTED NEUTROPHIL (120 h, time 5 day): 839.67 CELLS/uL
BASOPHIL (120 h, time 5 day): 0%
EOSINOPHIL (120 h, time 5 day): 0%
ERYTHROCYTE COUNT (120 h, time 5 day): 5.11 x10E6/uL
HEMATOCRIT (120 h, time 5 day): 31.43%
HEMOGLOBIN (120 h, time 5 day): 11.77 G/DL
LEUKOCYTE COUNT (120 h, time 5 day): 6.83 x10E3/uL
LYMPHOCYTE (120 h, time 5 day): 86.33%
MEAN CORPUSCULAR HEMOGLOBIN (120 h, time 5 day): 23.1 pg
MEAN CORPUSCULAR HEMOGLOBIN CONCENTRATION (120 h, time 5 day): 37.43 G/DL
MEAN CORPUSCULAR VOLUME (120 h, time 5 day): 61.57 fL
MONOCYTE (120 h, time 5 day): 1.33%
NEUTROPHIL (120 h, time 5 day): 12.33%
NUCLEATED RED BLOOD CELLS (120 h, time 5 day): 0 /100WBC
PLATELET COUNT (120 h, time 5 day): 990.67 x10E3/uL
ALANINE AMINOTRANSFERASE [2]: 50.33 u/L
ALBUMIN [2]: 4.63 G/DL
ALKALINE PHOSPHATASE [2]: 303.67 u/L
ASPARTATE AMINOTRANSFERASE [2]: 73 u/L
BLOOD UREA NITROGEN [2]: 12.67 mg/dL
CARBON DIOXIDE [2]: 33 mmol/L
CHLORIDE [2]: 99.67 MEQ/L
CHOLESTEROL [2]: 71.67 mg/dL
CREATININE [2]: 0.15 mg/dL
GLUCOSE [2]: 135.33 mg/dL
LACTATE DEHYDROGENASE [2]: 84.67 u/L
LIPASE [2]: 8.67 u/L
PHOSPHORUS [2]: 12.63 mg/dL
POTASSIUM [2]: 6.25 MEQ/L
SODIUM [2]: 146.5 MEQ/L
TOTAL BILIRUBIN [2]: 0.23 mg/dL
TOTAL PROTEIN [2]: 6.5 G/DL

— ChEMBL document CHEMBL3885881, “DrugMatrix”
